Here are results for one molecule from patent US6746667B2, “Adhesive treatment for tinea pedis” (Closure Medical Corporation, priority 2001, dated 2004).

A short description of this data set: observation of haloprogin / 2-octyl cyanoacrylate monomer composition after preparation. Format: physicochemical. The note with it: 30 mg in 2 mL 2-octyl cyanoacrylate monomer; about one minute and at least twenty-four hours after preparation. The method, then: A 2-octyl cyanoacrylate monomer composition is prepared by adding 30 mg of haloprogin, an anti-fungal agent, to 2 mL of 2-octyl cyanoacrylate monomer. The mixture is sealed in a glass vial and stirred. The characteristics of the composition are observed at about one minute after preparation and later at least twenty-four hours after preparation.

On to `Clc1cc(Cl)c(OCC#CI)cc1Cl` [haloprogin], for which the “premature polymerization of the monomer (stability)” value is reported as “does not cause premature polymerization” and the “solubility in the monomer” value is on record as “soluble in the monomer”.
